Bounds are passed on as bounds.

The target of the experiment is T1, AsPC-1 HiBiT-KRASG12D (Homo sapiens, UniProt P01116, G12D).
T1 construct: insert the HiBiT tag onto the N-terminus of one or more of the endogenous KRAS alleles; endogenous in cells; host or cells: AsPC-1 (ATCC CRL-1682), CRISPR-Cas9 knock-in clone, one tagged allele
Description: HiBiT degradation assay (G12D), AsPC-1 HiBiT-KRASG12D cells. The experiment is classed as cell-based. To be noted: 24 hours treatment; for Dmax: ASPC1, AsPC-1 HiBiT-KRASG12D cells; for DC50: HiBiT luminescence. Put shortly: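 24 h cmpd treatment, 37° C/5% CO2, AsPC-1 HiBiT-KRASG12D clone (CRISPR N-term tag). Alamar blue 1×, 4 h, fluorescence. PBS wash, Nano-Glo HiBiT lytic reagent, 45 min RT, luminescence. Triplicates.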
For orientation: HiBiT is a short tag that completes a luciferase, so light tracks the accessible tagged protein.

T1 sequence (P01116 1-188 isoform P01116-2 G12D): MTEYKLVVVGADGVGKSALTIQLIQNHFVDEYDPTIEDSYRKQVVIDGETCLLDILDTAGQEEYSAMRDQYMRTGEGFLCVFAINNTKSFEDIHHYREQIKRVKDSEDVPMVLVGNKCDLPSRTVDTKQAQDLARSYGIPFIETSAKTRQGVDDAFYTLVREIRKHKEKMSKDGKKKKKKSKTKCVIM

`CCc1cccc2cc(O)cc(-c3ncc4c(N5CC6CCC(C5)N6)nc(OCCN5CCC(F)(CN6CCN(c7cc([C@@H](C(=O)N8C[C@H](O)C[C@H]8C(=O)N[C@@H](C)c8ccc(-c9scnc9C)cc8)C(C)C)on7)[C@H](C)C6)CC5)nc4c3F)c12` [Compound 224, (2S,4R)-1-[(2S)-2-{3-[(2R)-4-[(1-{2-[(4-{3,8-diazabicyclo[3.2.1]octan-3-yl}-7-(8-ethyl-3-hydroxynaphthalen-1-yl)-8-fluoropyrido[4,3-d]pyrimidin-2-yl)oxy]ethyl}-4-fluoropiperidin-4-yl)methyl]-2-methylpiperazin-1-yl]-1,2-oxazol-5-yl}-3-methylbutanoyl]-4-hydroxy-N-[(1S)-1-[4-(4-methyl-1,3-thiazol-5-yl)phenyl]ethyl]pyrrolidine-2-carboxamide] registered a maximal degradation (Dmax) (maximum degradation observed) of 20 to 60%. The 50% degradation concentration (DC50) (AsPC-1 HiBiT-KRASG12D cells) was in the range of 600 to 1000 nM.
In the same order, the values of `CCc1cccc2cccc(-c3ncc4c(N5CC6CCC(C5)N6)nc(OC[C@]56CCCN5[C@H](COC(=O)N5CC(Oc7cc([C@H](C(=O)N8C[C@H](O)C[C@H]8C(=O)N[C@@H](C)c8ccc(-c9scnc9C)cc8)C(C)C)on7)C5)CC6)nc4c3F)c12` [Compound 225] are 80 to 100% and below 600 nM.
Turning to `CCc1cccc2cccc(-c3ncc4c(N5CC6CCC(C5)N6C(=O)OC(C)(C)C)nc(OC[C@]56CCCN5[C@H](COC(=O)N5CCN(c7cc([C@H](C(=O)N8C[C@H](O)C[C@H]8C(=O)N[C@@H](C)c8ccc(-c9scnc9C)cc8)C(C)C)on7)[C@H](C)C5)CC6)nc4c3F)c12` [Compound 226, tert-butyl 3-[7-(8-ethyl-1-naphthyl)-8-fluoro-2-[[(3S,8R)-3-[[(3R)-4-[5-[(1R)-1-[(2S,4R)-4-hydroxy-2-[[(1S)-1-[4-(4-methylthiazol-5-yl)phenyl]ethyl]carbamoyl]pyrrolidine-1-carbonyl]-2-methyl-propyl]isoxazol-3-yl]-3-methyl-piperazine-1-carbonyl]oxymethyl]-1,2,3,5,6,7-hexahydropyrrolizin-8-yl]methoxy]pyrido[4,3-d]pyrimidin-4-yl]-3,8-diazabicyclo[3.2.1]octane-8-carboxylate], the half-maximal degradation concentration (DC50) (AsPC-1 HiBiT-KRASG12D cells) is below 600 nM. Moreover, the “AsPC-1 HiBiT-KRASG12D DMax” value (AsPC-1 HiBiT-KRASG12D cells, maximum degradation observed) was “A (80% < A ≤ 100%)”.
The compound `CCc1cccc2cc(O)cc(-c3ncc4c(N5CCCCCC5)nc(OC[C@]56CCCN5[C@H](COC(=O)N5CCN(c7cc([C@H](C(=O)N8C[C@H](O)C[C@H]8C(=O)N[C@@H](C)c8ccc(-c9scnc9C)cc8)C(C)C)on7)[C@H](C)C5)CC6)nc4c3F)c12` [Compound 227, [(3S,8R)-8-[[4-(azepan-1-yl)-7-(8-ethyl-3-hydroxy-1-naphthyl)-8-fluoro-pyrido[4,3-d]pyrimidin-2-yl]oxymethyl]-1,2,3,5,6,7-hexahydropyrrolizin-3-yl]methyl (3R)-4-[5-[(1R)-1-[(2S,4R)-4-hydroxy-2-[[(1S)-1-[4-(4-methylthiazol-5-yl)phenyl]ethyl]carbamoyl]pyrrolidine-1-carbonyl]-2-methyl-propyl]isoxazol-3-yl]-3-methyl-piperazine-1-carboxylate] returned a Dmax (maximum degradation observed) of 80 to 100%. This compound also had a DC50 (AsPC-1 HiBiT-KRASG12D cells) below 600 nM.
The corresponding values for `CCc1cccc2cc(O)cc(-c3ncc4c(N5CC6CCC(C5)N6)nc(OCCN5CCC[C@@H](CN6CCN(c7cc([C@H](C(=O)N8C[C@H](O)C[C@H]8C(=O)N[C@@H](C)c8ccc(-c9scnc9C)cc8)C(C)C)on7)CC6)C5)nc4c3F)c12` [Compound 228] are 80 to 100% and below 600 nM.
In the same order, the values of `CCc1cccc2cc(O)cc(-c3ncc4c(N5CCCCCC5)nc(OC[C@@]56CCCN5[C@H](COC(=O)N5CCN(c7cc([C@H](C(=O)N8C[C@H](O)C[C@H]8C(=O)N[C@@H](C)c8ccc(-c9scnc9C)cc8)C(C)C)on7)[C@H](C)C5)CC6)nc4c3F)c12` [Compound 229, [(3S,8S)-8-[[4-(azepan-1-yl)-7-(8-ethyl-3-hydroxy-1-naphthyl)-8-fluoro-pyrido[4,3-d]pyrimidin-2-yl]oxymethyl]-1,2,3,5,6,7-hexahydropyrrolizin-3-yl]methyl (3R)-4-[5-[(1R)-1-[(2S,4R)-4-hydroxy-2-[[(1S)-1-[4-(4-methylthiazol-5-yl)phenyl]ethyl]carbamoyl]pyrrolidine-1-carbonyl]-2-methyl-propyl]isoxazol-3-yl]-3-methyl-piperazine-1-carboxylate] are 80 to 100% and below 600 nM.
The corresponding values for `CCc1cccc2cc(O)cc(-c3ncc4c(N5CCCCCC5)nc(OC[C@@H]5CC[C@@H](COC(=O)N6CCN(c7cc([C@H](C(=O)N8C[C@H](O)C[C@H]8C(=O)N[C@@H](C)c8ccc(-c9scnc9C)cc8)C(C)C)on7)[C@H](C)C6)N5C)nc4c3F)c12` [Compound 230, [(2S,5S)-5-[[4-(azepan-1-yl)-7-(8-ethyl-3-hydroxy-1-naphthyl)-8-fluoro-pyrido[4,3-d]pyrimidin-2-yl]oxymethyl]-1-methyl-pyrrolidin-2-yl]methyl (3R)-4-[5-[(1R)-1-[(2S,4R)-4-hydroxy-2-[[(1S)-1-[4-(4-methylthiazol-5-yl)phenyl]ethyl]carbamoyl]pyrrolidine-1-carbonyl]-2-methyl-propyl]isoxazol-3-yl]-3-methyl-piperazine-1-carboxylate] are 60 to 80% and below 600 nM.
On to `CCc1cccc2cc(O)cc(-c3ncc4c(N5CC6CCC(C5)N6)nc(OCCN5CCC6(CC5)CC(Oc5cc([C@H](C(=O)N7C[C@H](O)C[C@H]7C(=O)N[C@@H](C)c7ccc(-c8scnc8C)cc7)C(C)C)on5)C6)nc4c3F)c12` [Compound 231], for which the maximal degradation (Dmax) (maximum degradation observed) lay within 80 to 100%. For the setting “AsPC-1 HiBiT-KRASG12D cells”, this compound came in with a 50% degradation concentration (DC50) below 600 nM.
The corresponding values for `CCc1cccc2cc(O)cc(-c3ncc4c(N5CC6CCC(C5)N6)nc(OCCN5CCC6(CC5)CC(Oc5cc([C@@H](C(=O)N7C[C@H](O)C[C@H]7C(=O)N[C@@H](C)c7ccc(-c8scnc8C)cc7)C(C)C)on5)C6)nc4c3F)c12` [Compound 232] are 20 to 60% and 1000 to 3000 nM.
The corresponding values for `CCc1cccc2cc(O)cc(-c3ncc4c(N5CC6CCC(C5)N6)nc(OCCN5CC(CC6CCN(c7cc([C@H](C(=O)N8C[C@H](O)C[C@H]8C(=O)N[C@@H](C)c8ccc(-c9scnc9C)cc8)C(C)C)on7)CC6)C5)nc4c3F)c12` [Compound 233] are 80 to 100% and below 600 nM.
For the setting “maximum degradation observed”, `CCc1cccc2cc(O)cc(-c3ncc4c(N5CC6CCC(C5)N6)nc(OCCN5CC(CC6CCN(c7cc([C@@H](C(=O)N8C[C@H](O)C[C@H]8C(=O)N[C@@H](C)c8ccc(-c9scnc9C)cc8)C(C)C)on7)CC6)C5)nc4c3F)c12` [Compound 234, (2S,4R)-1-[(2S)-2-(3-{4-[(1-{2-[(4-{3,8-diazabicyclo[3.2.1]octan-3-yl}-7-(8-ethyl-3-hydroxynaphthalen-1-yl)-8-fluoropyrido[4,3-d]pyrimidin-2-yl)oxy]ethyl}azetidin-3-yl)methyl]piperidin-1-yl}-1,2-oxazol-5-yl)-3-methylbutanoyl]-4-hydroxy-N-[(1S)-1-[4-(4-methyl-1,3-thiazol-5-yl)phenyl]ethyl] pyrrolidine-2-carboxamide] returned a maximal degradation (Dmax) of 20 to 60%. The compound further showed a half-maximal degradation concentration (DC50) (AsPC-1 HiBiT-KRASG12D cells) of 1000 to 3000 nM.
The corresponding values for `CCc1cccc2cc(O)cc(-c3ncc4c(N5CC6CCC(C5)N6)nc(OCCN5CCC(CN6CC7(C6)CN(c6cc([C@H](C(=O)N8C[C@H](O)C[C@H]8C(=O)N[C@@H](C)c8ccc(-c9scnc9C)cc8)C(C)C)on6)C7)CC5)nc4c3F)c12` [Compound 235, (2S,4R)-1-[(2R)-2-[3-[6-[1-[2-[[4-(3,8-diazabicyclo[3.2.1]octan-3-yl)-7-(8-ethyl-3-hydroxy-1-naphthyl)-8-fluoro-pyrido[4,3-d]pyrimidin-2-yl]oxyethyl]-4-piperidyl]methyl]-2,6-diazaspiro[3.3]heptan-2-yl]isoxazol-5-yl]-3-methyl-butanoyl]-4-hydroxy-N-[(1S)-1-[4-(4-methylthiazol-5-yl)phenyl]ethyl]pyrrolidine-2-carboxamide] are 80 to 100% and below 600 nM.
Compound `CCc1cccc2cc(O)cc(-c3ncc4c(N5CC6CCC(C5)N6)nc(OCCN5CCC(CN6CC7(C6)CN(c6cc([C@@H](C(=O)N8C[C@H](O)C[C@H]8C(=O)N[C@@H](C)c8ccc(-c9scnc9C)cc8)C(C)C)on6)C7)CC5)nc4c3F)c12` [Compound 236] registered a DC50 (AsPC-1 HiBiT-KRASG12D cells) above 3000 nM.
On to `CCc1cccc2cc(O)cc(-c3ncc4c(N5CC6CCC(C5)N6)nc(OCCN5CCC(C)(CCOc6cc([C@H](C(=O)N7C[C@H](O)C[C@H]7C(=O)N[C@@H](C)c7ccc(-c8scnc8C)cc7)C(C)C)on6)CC5)nc4c3F)c12` [Compound 237], for which, where the note is “AsPC-1 HiBiT-KRASG12D cells”, the DC50 was above 3000 nM.
`CCc1cccc2cc(O)cc(-c3ncc4c(N5CC6CCC(C5)N6)nc(OCCN5CCC(C)(CCOc6cc([C@@H](C(=O)N7C[C@H](O)C[C@H]7C(=O)N[C@@H](C)c7ccc(-c8scnc8C)cc7)C(C)C)on6)CC5)nc4c3F)c12` [Compound 238] returned a Dmax (maximum degradation observed) of 80 to 100%. Further, the half-maximal degradation concentration (DC50) (AsPC-1 HiBiT-KRASG12D cells) is below 600 nM.
For the setting “maximum degradation observed”, `CCc1cccc2cc(O)cc(-c3ncc4c(N5CC6CCC(C5)N6)nc(OCCN5CCC(F)(CC6CCN(c7cc([C@H](C(=O)N8C[C@H](O)C[C@H]8C(=O)N[C@@H](C)c8ccc(-c9scnc9C)cc8)C(C)C)on7)CC6)CC5)nc4c3F)c12` [Compound 239] registered a Dmax of 80 to 100%. This compound came in with a DC50 (AsPC-1 HiBiT-KRASG12D cells) below 600 nM.
For `CCc1cccc2cc(O)cc(-c3ncc4c(N5CC6CCC(C5)N6)nc(OCCN5CCC(F)(CC6CCN(c7cc([C@@H](C(=O)N8C[C@H](O)C[C@H]8C(=O)N[C@@H](C)c8ccc(-c9scnc9C)cc8)C(C)C)on7)CC6)CC5)nc4c3F)c12` [Compound 240], where the note is “AsPC-1 HiBiT-KRASG12D cells”, the DC50 was above 3000 nM.
`CCc1cccc2cc(O)cc(-c3ncc4c(N5CCCCCC5)nc(OC[C@@H]5CC[C@@H](COC(=O)N6CC(Oc7cc([C@H](C(=O)N8C[C@H](O)C[C@H]8C(=O)N[C@@H](C)c8ccc(-c9scnc9C)cc8)C(C)C)on7)C6)N5C)nc4c3F)c12` [Compound 241] yielded a Dmax (maximum degradation observed) of 60 to 80%. In addition, the 50% degradation concentration (DC50) (AsPC-1 HiBiT-KRASG12D cells) is below 600 nM.

One may read the Dmax as the largest share of the target that was removed. Low values mean a partial loss of target, high ones a fuller loss of target. In general, DC50 refers to the concentration at which degradation of the target reaches its halfway point.
